Source: ChEMBL document CHEMBL1130506, “Inhibition of the her2 tyrosine kinase and characterization of a hydrophobic site near the nucleotide binding domain” (Bioorg Med Chem Lett, 1997)
pIC50: −log10 of the molar value.

Each compound was assayed against Receptor tyrosine-protein kinase erbB-2 (Homo sapiens, UniProt P04626) (assay: Inhibition of autophosphorylation of HER-2 expressed in NIH3T3 cell lines).
Format: cell-based

Receptor tyrosine-protein kinase erbB-2, sequence (P04626 whole entry): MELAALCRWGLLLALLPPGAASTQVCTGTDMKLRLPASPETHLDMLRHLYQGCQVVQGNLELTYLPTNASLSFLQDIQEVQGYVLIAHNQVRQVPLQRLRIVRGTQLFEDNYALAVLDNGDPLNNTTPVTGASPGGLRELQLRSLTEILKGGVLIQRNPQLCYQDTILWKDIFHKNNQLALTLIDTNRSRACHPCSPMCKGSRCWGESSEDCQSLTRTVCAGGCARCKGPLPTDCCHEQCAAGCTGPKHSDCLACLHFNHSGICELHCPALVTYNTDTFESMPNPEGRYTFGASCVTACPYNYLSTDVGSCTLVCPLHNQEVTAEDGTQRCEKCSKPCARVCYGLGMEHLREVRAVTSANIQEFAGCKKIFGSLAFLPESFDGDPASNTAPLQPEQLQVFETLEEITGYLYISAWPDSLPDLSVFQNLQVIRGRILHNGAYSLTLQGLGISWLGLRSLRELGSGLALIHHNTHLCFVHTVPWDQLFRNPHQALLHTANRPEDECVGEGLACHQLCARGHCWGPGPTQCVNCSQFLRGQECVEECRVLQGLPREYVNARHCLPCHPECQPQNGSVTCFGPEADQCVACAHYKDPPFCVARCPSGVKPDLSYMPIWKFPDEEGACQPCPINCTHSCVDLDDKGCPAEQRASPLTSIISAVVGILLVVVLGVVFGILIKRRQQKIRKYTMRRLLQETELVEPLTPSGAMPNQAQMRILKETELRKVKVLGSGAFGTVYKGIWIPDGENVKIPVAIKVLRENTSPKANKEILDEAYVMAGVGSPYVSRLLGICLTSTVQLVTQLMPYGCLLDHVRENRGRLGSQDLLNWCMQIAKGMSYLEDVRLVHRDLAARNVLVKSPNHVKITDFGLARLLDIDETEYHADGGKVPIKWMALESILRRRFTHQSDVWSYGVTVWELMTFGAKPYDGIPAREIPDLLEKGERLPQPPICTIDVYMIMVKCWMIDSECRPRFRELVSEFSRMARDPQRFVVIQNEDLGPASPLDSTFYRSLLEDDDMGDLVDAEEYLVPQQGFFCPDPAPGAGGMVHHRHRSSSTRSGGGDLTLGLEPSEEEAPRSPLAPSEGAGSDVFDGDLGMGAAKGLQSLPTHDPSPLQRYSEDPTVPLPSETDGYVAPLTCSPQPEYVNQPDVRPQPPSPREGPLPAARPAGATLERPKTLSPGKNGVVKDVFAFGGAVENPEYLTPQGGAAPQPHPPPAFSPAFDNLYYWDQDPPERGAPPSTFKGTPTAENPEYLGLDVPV

Row | pIC50 | Structure (SMILES)
1 | 5.36 | O=C(CCCC(=O)Oc1ccc(/C=C/[N+](=O)[O-])cc1)Oc1ccccc1
2 | 5.35 | CC(C)O[C@@H]1[C@H](OC(C)C)[C@@H](COC(=O)CCCC(=O)Oc2ccc(/C=C/[N+](=O)[O-])cc2)O[C@H]1n1cnc2c(N)ncnc21
3 | 5.18 | COc1ccc(OC(=O)CCCC(=O)Oc2ccc(/C=C/[N+](=O)[O-])cc2)cc1
4 | 5.42 | O=C(CCCC(=O)Oc1ccc(/C=C/[N+](=O)[O-])cc1)OCc1ccco1
